According to ChEMBL document CHEMBL3885861, “Open TG-GATES”:

Species on record: Rattus norvegicus
Assay: Open TG-GATES - Regimen: Single
Type: toxicity, organism-based, Sprague-Dawley
Set-up: regimen Single, gender Male, age 6 weeks
Conditions: in vivo, po, route gavage; for APTT / Bas / Eos / Fbg / Hb / Ht / Lym / MCH / MCHC / MCV / Mono / Neu / PT / Plat / RBC / Ret / WBC: tissue Blood; for KIDNEY_L / KIDNEY_R / KIDNEY_TOTAL: tissue Kidney; for LIVER: tissue Liver; for A/G / ALP / ALT / AST / BUN / CRE / Ca / Cl / DBIL / GLC / IP / K / LDH / Na / PL / RALB / TBIL / TC / TG / TP / gamma-GTP: tissue Plasma
[1] = 0 mg/kg, 3 h, dose level Control
[2] = 0 mg/kg, 6 h, dose level Control
[3] = 0 mg/kg, 9 h, dose level Control
[4] = 0 mg/kg, 24 h, dose level Control

## CC(CN1c2ccccc2Sc2ccccc21)N(C)C (centres undefined) [PROMETHAZINE]
[1]
  TERMINAL_BW: 213.5 g
  APTT: 22.4 s
  Bas: 0%
  Eos: 0.8%
  Fbg: 333.6 mg/dL
  Hb: 13 g/dL
  Ht: 39.9%
  Lym: 81.4%
  MCH: 20.6 pg
  MCHC: 32.6%
  MCV: 63.4 fL
  Mono: 2.4%
  Neu: 15.2%
  PT: 16.4 s
  Plat: 117.1 x10_4/uL
  RBC: 629.4 x10_4/ul
  Ret: 8.5%
  WBC: 94.5 x10_2/uL
  KIDNEY_L: 0.9 g
  KIDNEY_R: 1 g
  KIDNEY_TOTAL: 1.9 g
  LIVER: 9.9 g
  A/G: 1.2
  ALP: 1819.4 IU/L
  ALT: 42.8 IU/L
  AST: 76 IU/L
  BUN: 12.8 mg/dL
  CRE: 0.2 mg/dL
  Ca: 10.9 mg/dL
  Cl: 105.8 meq/L
  DBIL: 0 mg/dL
  GLC: 190.4 mg/dL
  IP: 8.1 mg/dL
  K: 4.4 meq/L
  LDH: 234.4 IU/L
  Na: 142.2 meq/L
  PL: 134.2 mg/dL
  RALB: 3 g/dL
  TBIL: 0.016 mg/dL
  TC: 75 mg/dL
  TG: 64.2 mg/dL
  TP: 5.5 g/dL
  gamma-GTP: 1.2 IU/L
[2]
  TERMINAL_BW: 210.9 g
  APTT: 22.7 s
  Bas: 0%
  Eos: 1%
  Fbg: 310.8 mg/dL
  Hb: 13.3 g/dL
  Ht: 39.9%
  Lym: 82.6%
  MCH: 20.9 pg
  MCHC: 33.4%
  MCV: 62.5 fL
  Mono: 2.4%
  Neu: 13.6%
  PT: 16.7 s
  Plat: 111.7 x10_4/uL
  RBC: 639.6 x10_4/ul
  Ret: 7.3%
  WBC: 81.5 x10_2/uL
  KIDNEY_L: 1 g
  KIDNEY_R: 1 g
  KIDNEY_TOTAL: 2 g
  LIVER: 8.7 g
  A/G: 1.3
  ALP: 1393.4 IU/L
  ALT: 41.4 IU/L
  AST: 76.2 IU/L
  BUN: 11.2 mg/dL
  CRE: 0.2 mg/dL
  Ca: 10.9 mg/dL
  Cl: 104.8 meq/L
  DBIL: 0 mg/dL
  GLC: 186.2 mg/dL
  IP: 9.4 mg/dL
  K: 4.3 meq/L
  LDH: 208.2 IU/L
  Na: 141.2 meq/L
  PL: 133.8 mg/dL
  RALB: 3 g/dL
  TBIL: 0.018 mg/dL
  TC: 83.2 mg/dL
  TG: 53 mg/dL
  TP: 5.4 g/dL
  gamma-GTP: 1.8 IU/L
[3]
  TERMINAL_BW: 207.6 g
  APTT: 22.2 s
  Bas: 0%
  Eos: 0.8%
  Fbg: 318.8 mg/dL
  Hb: 13.1 g/dL
  Ht: 40.1%
  Lym: 80%
  MCH: 20.8 pg
  MCHC: 32.6%
  MCV: 64 fL
  Mono: 3%
  Neu: 15.6%
  PT: 16.7 s
  Plat: 123.9 x10_4/uL
  RBC: 627.6 x10_4/ul
  Ret: 8.1%
  WBC: 107.3 x10_2/uL
  KIDNEY_L: 1 g
  KIDNEY_R: 1 g
  KIDNEY_TOTAL: 1.9 g
  LIVER: 8.7 g
  A/G: 1.2
  ALP: 1357.2 IU/L
  ALT: 38.8 IU/L
  AST: 68 IU/L
  BUN: 12.4 mg/dL
  CRE: 0.2 mg/dL
  Ca: 10.6 mg/dL
  Cl: 104.6 meq/L
  DBIL: 0.004 mg/dL
  GLC: 191.2 mg/dL
  IP: 10 mg/dL
  K: 4.5 meq/L
  LDH: 237.8 IU/L
  Na: 140.4 meq/L
  PL: 125.8 mg/dL
  RALB: 3 g/dL
  TBIL: 0.016 mg/dL
  TC: 73.2 mg/dL
  TG: 55 mg/dL
  TP: 5.4 g/dL
  gamma-GTP: 1.2 IU/L
[4]
  TERMINAL_BW: 222 g
  APTT: 22.1 s
  Bas: 0%
  Eos: 0.8%
  Fbg: 326.8 mg/dL
  Hb: 13.5 g/dL
  Ht: 40.2%
  Lym: 81.6%
  MCH: 20.8 pg
  MCHC: 33.5%
  MCV: 62.2 fL
  Mono: 2%
  Neu: 14.8%
  PT: 17 s
  Plat: 131.7 x10_4/uL
  RBC: 647.6 x10_4/ul
  Ret: 7.2%
  WBC: 130.1 x10_2/uL
  KIDNEY_L: 1 g
  KIDNEY_R: 1 g
  KIDNEY_TOTAL: 2 g
  LIVER: 10.5 g
  A/G: 1.3
  ALP: 1690.8 IU/L
  ALT: 44.2 IU/L
  AST: 73.2 IU/L
  BUN: 15.8 mg/dL
  CRE: 0.2 mg/dL
  Ca: 11 mg/dL
  Cl: 106.6 meq/L
  DBIL: 0 mg/dL
  GLC: 192.6 mg/dL
  IP: 7.2 mg/dL
  K: 4.4 meq/L
  LDH: 180.6 IU/L
  Na: 142.4 meq/L
  PL: 141.4 mg/dL
  RALB: 3.1 g/dL
  TBIL: 0.004 mg/dL
  TC: 74.4 mg/dL
  TG: 95.8 mg/dL
  TP: 5.5 g/dL
  gamma-GTP: 1.4 IU/L
20 mg/kg, 3 h, dose level Low
  TERMINAL_BW: 208 g
  APTT: 23.7 s
  Bas: 0%
  Eos: 0.6%
  Fbg: 325.8 mg/dL
  Hb: 13.5 g/dL
  Ht: 41.2%
  Lym: 81.4%
  MCH: 20.7 pg
  MCHC: 32.7%
  MCV: 63.3 fL
  Mono: 2.2%
  Neu: 15.4%
  PT: 16.4 s
  Plat: 114.7 x10_4/uL
  RBC: 651.2 x10_4/ul
  Ret: 8.2%
  WBC: 78 x10_2/uL
  KIDNEY_L: 0.9 g
  KIDNEY_R: 0.9 g
  KIDNEY_TOTAL: 1.8 g
  LIVER: 9.2 g
  A/G: 1.2
  ALP: 1475 IU/L
  ALT: 53.2 IU/L
  AST: 73.6 IU/L
  BUN: 10.6 mg/dL
  CRE: 0.2 mg/dL
  Ca: 10.5 mg/dL
  Cl: 105.8 meq/L
  DBIL: 0.018 mg/dL
  GLC: 177.8 mg/dL
  IP: 9.1 mg/dL
  K: 4.3 meq/L
  LDH: 202.2 IU/L
  Na: 142.4 meq/L
  PL: 140.2 mg/dL
  RALB: 2.9 g/dL
  TBIL: 0.02 mg/dL
  TC: 82 mg/dL
  TG: 60.4 mg/dL
  TP: 5.4 g/dL
  gamma-GTP: 1.2 IU/L
20 mg/kg, 6 h, dose level Low
  TERMINAL_BW: 211.9 g
  APTT: 22.9 s
  Bas: 0%
  Eos: 0.6%
  Fbg: 315 mg/dL
  Hb: 13.2 g/dL
  Ht: 40%
  Lym: 83.4%
  MCH: 20.5 pg
  MCHC: 33.1%
  MCV: 62.1 fL
  Mono: 2.2%
  Neu: 13.2%
  PT: 16.9 s
  Plat: 118.2 x10_4/uL
  RBC: 644.8 x10_4/ul
  Ret: 7.8%
  WBC: 108.7 x10_2/uL
  KIDNEY_L: 0.9 g
  KIDNEY_R: 1 g
  KIDNEY_TOTAL: 1.9 g
  LIVER: 9 g
  A/G: 1.3
  ALP: 1313.4 IU/L
  ALT: 41.2 IU/L
  AST: 72.2 IU/L
  BUN: 10.4 mg/dL
  CRE: 0.2 mg/dL
  Ca: 10.9 mg/dL
  Cl: 105.4 meq/L
  DBIL: 0.014 mg/dL
  GLC: 178.8 mg/dL
  IP: 9.7 mg/dL
  K: 4.3 meq/L
  LDH: 161 IU/L
  Na: 141.4 meq/L
  PL: 131.2 mg/dL
  RALB: 3.1 g/dL
  TBIL: 0.03 mg/dL
  TC: 76.2 mg/dL
  TG: 69.8 mg/dL
  TP: 5.5 g/dL
  gamma-GTP: 1.2 IU/L
20 mg/kg, 9 h, dose level Low
  TERMINAL_BW: 213 g
  APTT: 22.5 s
  Bas: 0%
  Eos: 0.4%
  Fbg: 311.4 mg/dL
  Hb: 13 g/dL
  Ht: 39.2%
  Lym: 77.8%
  MCH: 20.2 pg
  MCHC: 33%
  MCV: 61.3 fL
  Mono: 2%
  Neu: 18.6%
  PT: 16.8 s
  Plat: 119.8 x10_4/uL
  RBC: 639.8 x10_4/ul
  Ret: 7.2%
  WBC: 108 x10_2/uL
  KIDNEY_L: 1 g
  KIDNEY_R: 1 g
  KIDNEY_TOTAL: 1.9 g
  LIVER: 8.6 g
  A/G: 1.2
  ALP: 1421.2 IU/L
  ALT: 43.4 IU/L
  AST: 69 IU/L
  BUN: 11.4 mg/dL
  CRE: 0.2 mg/dL
  Ca: 10.9 mg/dL
  Cl: 105 meq/L
  DBIL: 0.008 mg/dL
  GLC: 183.8 mg/dL
  IP: 10.2 mg/dL
  K: 4.3 meq/L
  LDH: 152.8 IU/L
  Na: 140.8 meq/L
  PL: 123.2 mg/dL
  RALB: 2.9 g/dL
  TBIL: 0.018 mg/dL
  TC: 72.2 mg/dL
  TG: 51.4 mg/dL
  TP: 5.4 g/dL
  gamma-GTP: 1.4 IU/L
20 mg/kg, 24 h, dose level Low
  TERMINAL_BW: 220.8 g
  APTT: 22.2 s
  Bas: 0%
  Eos: 0.8%
  Fbg: 317.2 mg/dL
  Hb: 13.4 g/dL
  Ht: 39.8%
  Lym: 79.8%
  MCH: 20.8 pg
  MCHC: 33.6%
  MCV: 62 fL
  Mono: 2.4%
  Neu: 16.4%
  PT: 16.6 s
  Plat: 117.2 x10_4/uL
  RBC: 643.4 x10_4/ul
  Ret: 7.2%
  WBC: 125.3 x10_2/uL
  KIDNEY_L: 0.9 g
  KIDNEY_R: 0.9 g
  KIDNEY_TOTAL: 1.9 g
  LIVER: 10.1 g
  A/G: 1.3
  ALP: 1645.6 IU/L
  ALT: 49.8 IU/L
  AST: 76 IU/L
  BUN: 17.4 mg/dL
  CRE: 0.2 mg/dL
  Ca: 11 mg/dL
  Cl: 106 meq/L
  DBIL: 0 mg/dL
  GLC: 188 mg/dL
  IP: 6.8 mg/dL
  K: 4.1 meq/L
  LDH: 154 IU/L
  Na: 142.6 meq/L
  PL: 146.2 mg/dL
  RALB: 3.1 g/dL
  TBIL: 0.002 mg/dL
  TC: 78.2 mg/dL
  TG: 109.2 mg/dL
  TP: 5.5 g/dL
  gamma-GTP: 1.6 IU/L
